GI50 and TGI data for 15 compounds are collected here from PubChem BioAssay (NCI).

Values joined by “and” are separate entries in the source; they are usually repeats but may differ in a detail not shown here. Equal values may be shown once.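 Exposure lasted 48 hours, with cells grown in 96-well plates and compounds tested at five concentrations. GI50 is the concentration that inhibits growth by half. TGI: concentration producing complete growth inhibition.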

Some test systems named below: BT-549 breast; DU-145 prostate; MALME-3M melanoma; NCI-H226 lung; NCI-H23 lung; SK-MEL-2 melanoma; SR leukemia; U251 CNS; A498 renal; HOP-92 NSCLC.
Experiment in all cases: NCI anticancer screen, dose series, 48 h

Take `COC(=O)c1ccc2c(c1)C(=O)c1c-2n(CCCN=[N+]=[N-])c(=O)c2cc(OC)c(OC)cc12`: the GI50 in the experiment on BT-549 breast was over 100 µM; in the experiment on DU-145 prostate, over 100 µM; with MALME-3M melanoma it was over 100 µM; in the experiment with NCI-H226 lung it was over 100 µM; in the experiment on NCI-H23 lung, 15.6 µM; in the experiment on SK-MEL-2 melanoma, over 100 µM. Also, the GI50 in the experiment on SR leukemia was 3.57 µM; in the experiment with U251 CNS, over 100 µM. Besides, the TGI in the experiment on BT-549 breast, in the experiment with DU-145 prostate, with MALME-3M melanoma, with NCI-H226 lung, in the experiment with NCI-H23 lung and in the experiment on SK-MEL-2 melanoma was over 100 µM each time. Further, the TGI is 56 µM in the experiment with SR leukemia and over 100 µM in the experiment with U251 CNS.
Consider `COc1cc(Cl)cc(-c2nn(-c3cccc(NC(=O)c4ccc(N5CCOCC5)c(C(F)(F)F)c4)c3)cc2-c2ccncc2)c1`, for which the GI50 in the experiment on A498 renal is 16.2 µM; in the experiment on BT-549 breast, 89 µM; with DU-145 prostate it was over 100 µM; in the experiment with MALME-3M melanoma, 28.3 µM; in the experiment with NCI-H226 lung, 93.4 µM; in the experiment on NCI-H23 lung, 30.7 µM. For the same compound, the GI50 in the experiment with SK-MEL-2 melanoma was 21.1 µM; with SR leukemia, 3.06 µM; in the experiment with U251 CNS, 5.03 µM. Besides, the TGI in the experiment on A498 renal, with BT-549 breast, in the experiment with DU-145 prostate, in the experiment on MALME-3M melanoma, in the experiment with NCI-H226 lung and in the experiment with NCI-H23 lung was over 100 µM in each case. Moreover, the TGI in the experiment on SK-MEL-2 melanoma, in the experiment with SR leukemia and in the experiment on U251 CNS was over 100 µM throughout.
As to `COc1cnc2c(c1)C(=O)c1c-2n(CCCNC2=NCCS2)c(=O)c2cc([N+](=O)[O-])ccc12`, in the experiment with BT-549 breast, the GI50 was 0.0544 µM and the TGI was found to be 1.92 µM. For the same compound, in the experiment with DU-145 prostate, the GI50 is under 0.01 µM and the TGI is 1.38 µM.
Take `CC(C)(/C=C(\C#N)C(=O)N1CCC[C@@H](n2nc(-c3ccc(Oc4ccccc4)cc3F)c3c(N)ncnc32)C1)N1CCN(C2COC2)CC1`: the GI50 with A498 renal is 1.78 µM; in the experiment with BT-549 breast it was 5.42 µM; with DU-145 prostate it was 12.3 µM; in the experiment on HOP-92 NSCLC, 2.8 µM; with MALME-3M melanoma, 6.07 µM; with NCI-H226 lung, 4.3 µM. The GI50 was 11 µM in the experiment on NCI-H23 lung, 10.1 µM in the experiment with SK-MEL-2 melanoma and 7.35 µM in the experiment on U251 CNS. For the same compound, the TGI in the experiment with A498 renal came to 6.25 µM; in the experiment with BT-549 breast it was 18.6 µM; in the experiment with DU-145 prostate, 26.8 µM; in the experiment with HOP-92 NSCLC, 11.1 µM; in the experiment with MALME-3M melanoma it was 19.5 µM; in the experiment with NCI-H226 lung, 21.1 µM. Moreover, the figures for the TGI in the experiment on NCI-H23 lung, in the experiment with SK-MEL-2 melanoma and in the experiment with U251 CNS were 30.9 µM, 26.2 µM and 25.8 µM, respectively.
Take `CC(=O)Nc1ccc(-c2csc(Nc3cccc(-c4csc(C)n4)c3)n2)cc1`: the GI50 was 6.92 µM in the experiment on A498 renal; 8.34 µM in the experiment on BT-549 breast; 3.85 µM with DU-145 prostate; 4.92 µM with NCI-H226 lung; 3.31 µM in the experiment with NCI-H23 lung; 8.03 µM with SK-MEL-2 melanoma. In addition, the GI50 was 0.787 µM in the experiment on SR leukemia and 1.13 µM in the experiment on U251 CNS. Also, the TGI is over 29.1 µM with A498 renal; 44.6 µM with BT-549 breast; 22.7 µM in the experiment with DU-145 prostate; over 23.1 µM in the experiment with HOP-92 NSCLC; 16.8 µM in the experiment with NCI-H226 lung; over 27.7 µM with NCI-H23 lung. The TGI in the experiment on SK-MEL-2 melanoma is over 27.3 µM; in the experiment on SR leukemia, over 50 µM; in the experiment with U251 CNS it was 9.69 µM.
Take `CCN(CC)CCNc1nc(N)c(C#N)c(C#N)c1C#N`: the TGI in the experiment on A498 renal, in the experiment on BT-549 breast, in the experiment with DU-145 prostate, in the experiment with HOP-92 NSCLC, in the experiment with MALME-3M melanoma and with NCI-H226 lung was over 10 µM in each case. For the same compound, the TGI in the experiment with NCI-H23 lung and with U251 CNS was over 10 µM each time.
As to `CCOC(=O)N[C@H]1CCc2cc(OC)c(OC)c(OC)c2-c2ccc(SC)c(=O)cc21`, the TGI was 33.2 µM and > 32.5 µM in the experiment on BT-549 breast; over 100 µM in the experiment on HOP-92 NSCLC; over 100 µM in the experiment with MALME-3M melanoma; 3.29 µM in the experiment with NCI-H226 lung; over 100 µM with SR leukemia; 61.3 µM and > 100 µM in the experiment on U251 CNS. Also, the GI50 in the experiment with HOP-92 NSCLC is 0.0198 µM; with MALME-3M melanoma, under 0.0122 µM; in the experiment with SK-MEL-2 melanoma, 0.345 µM.
As for `COc1ccc(-c2nnc3n(C)c(=O)c4ccccc4n23)cc1N`, the GI50 in the experiment with A498 renal was 2.84 µM; in the experiment on BT-549 breast, over 100 µM; in the experiment on DU-145 prostate, 3.09 µM; in the experiment with HOP-92 NSCLC, 10.9 µM; in the experiment with NCI-H226 lung, over 100 µM; with NCI-H23 lung it was 5.28 µM. Also, the GI50 was 0.0346 µM in the experiment on SR leukemia and 1.63 µM in the experiment with U251 CNS. The TGI in the experiment on A498 renal was 54.5 µM; in the experiment with BT-549 breast it was over 100 µM; in the experiment with DU-145 prostate it was over 100 µM; in the experiment with HOP-92 NSCLC, 99.5 µM; in the experiment on NCI-H226 lung it was over 100 µM; with NCI-H23 lung, over 100 µM. Also, the TGI in the experiment on SR leukemia and with U251 CNS was over 100 µM in each case.
Regarding `O=C(Nc1cccc(C(F)(F)F)c1)c1ccc(NC2=C(Cl)C(=O)N(Cc3ccc(Cl)cc3Cl)C2=O)cc1`, the GI50 with A498 renal was 6.51 µM; in the experiment on BT-549 breast, 2.2 µM; in the experiment on DU-145 prostate, 11.8 µM; with HOP-92 NSCLC, 4.71 µM; in the experiment with NCI-H226 lung, 5.92 µM; with SK-MEL-2 melanoma it was 10.9 µM. The GI50 was 1.83 µM with SR leukemia and 5.82 µM with U251 CNS. Besides, the TGI with A498 renal came to 25.9 µM; with BT-549 breast it was 5.71 µM; in the experiment with DU-145 prostate, 30.2 µM; in the experiment with HOP-92 NSCLC it was 16.2 µM; in the experiment on NCI-H226 lung, 24 µM; in the experiment with SK-MEL-2 melanoma, 25.6 µM. Also, the results for the TGI in the experiment with SR leukemia and with U251 CNS were 3.93 µM and 19 µM, respectively.
Consider `Cc1nc(Nc2cccnc2)sc1C(=O)/C=C/c1ccc(F)cc1`, for which the GI50 was 7.61 µM in the experiment with A498 renal; 2.83 µM with BT-549 breast; 3.48 µM in the experiment on DU-145 prostate; 3.1 µM in the experiment with HOP-92 NSCLC; 5.55 µM with MALME-3M melanoma; 3.93 µM in the experiment on NCI-H23 lung. For the same compound, the GI50 was 2.86 µM in the experiment with SK-MEL-2 melanoma, 1.69 µM in the experiment on SR leukemia and 2.95 µM in the experiment on U251 CNS. In addition, the TGI was 42.7 µM in the experiment with A498 renal; 8.87 µM with BT-549 breast; 14.8 µM in the experiment on DU-145 prostate; 9.98 µM in the experiment on HOP-92 NSCLC; 40 µM in the experiment on MALME-3M melanoma; 20.7 µM with NCI-H23 lung. The TGI was 9.03 µM with SK-MEL-2 melanoma, over 100 µM with SR leukemia and 8.83 µM in the experiment with U251 CNS.
Take `O=C(NC[C@H](O)CN1CCc2ccccc2C1)c1cc(NC2COC2)ncn1`: the GI50 in the experiment with BT-549 breast was 7.24 µM; in the experiment with DU-145 prostate, 18.3 µM; in the experiment with HOP-92 NSCLC, 18.1 µM; in the experiment on MALME-3M melanoma, 14.1 µM; in the experiment on NCI-H226 lung, 9.88 µM; in the experiment on NCI-H23 lung, 19.3 µM. The figures for the GI50 in the experiment with SK-MEL-2 melanoma, with SR leukemia and in the experiment with U251 CNS were 15.9 µM, 9.29 µM and 13 µM, respectively. Also, the TGI with BT-549 breast is 35.4 µM; with DU-145 prostate, over 100 µM; in the experiment on HOP-92 NSCLC, over 100 µM; in the experiment with MALME-3M melanoma, 68.3 µM; in the experiment with NCI-H226 lung it was 40.2 µM; in the experiment with NCI-H23 lung, over 100 µM. The TGI with SK-MEL-2 melanoma is 51.7 µM; in the experiment on SR leukemia, 50.9 µM; in the experiment on U251 CNS, over 100 µM.
For the compound `COc1ccc(C(=O)Nc2ccc(O)c(=O)cc2)cc1`, the TGI in the experiment on BT-549 breast was over 100 µM; in the experiment on DU-145 prostate, 59 µM; in the experiment on MALME-3M melanoma, over 100 µM; with NCI-H226 lung, over 100 µM; in the experiment with NCI-H23 lung, over 100 µM; with SK-MEL-2 melanoma it was over 100 µM. The values for the TGI in the experiment with SR leukemia and in the experiment on U251 CNS were 31.4 µM and over 100 µM, respectively.
In the case of `S=c1[nH]c(=S)c2cc3ccccc3nc2[nH]1`, the GI50 in the experiment with A498 renal was over 100 µM; in the experiment with BT-549 breast it was 35.4 µM; in the experiment with DU-145 prostate, over 100 µM; in the experiment on HOP-92 NSCLC, 15.4 µM; in the experiment with MALME-3M melanoma it was 14.6 µM; in the experiment on NCI-H226 lung it was over 100 µM. The GI50 with NCI-H23 lung is 35 µM; in the experiment with SK-MEL-2 melanoma it was 26.1 µM; with U251 CNS, 5.98 µM. Also, the TGI in the experiment with A498 renal was over 100 µM; in the experiment on BT-549 breast it was over 100 µM; in the experiment on DU-145 prostate, over 100 µM; in the experiment on HOP-92 NSCLC, over 100 µM; with MALME-3M melanoma, 45.1 µM; in the experiment on NCI-H226 lung, over 100 µM. Further, the TGI in the experiment on NCI-H23 lung was over 100 µM; in the experiment with SK-MEL-2 melanoma, 84.7 µM; with U251 CNS, 41.6 µM.
With `N#C/C(=C\c1ccc2ccccc2c1)C(=O)c1ccccc1`, the TGI is over 100 µM in the experiment on A498 renal; over 100 µM in the experiment with BT-549 breast; over 100 µM with DU-145 prostate; over 100 µM with MALME-3M melanoma; over 100 µM with NCI-H226 lung; over 74.4 µM with NCI-H23 lung. In addition, the TGI with SK-MEL-2 melanoma is over 100 µM; in the experiment on SR leukemia it was over 100 µM; with U251 CNS it was 32.9 µM.
As for `CCC(C)(C)c1ccc(OCCCCNC(=O)c2ccc3ccccc3c2O)c(C(C)(C)CC)c1`, the TGI in the experiment with A498 renal was over 100 µM; in the experiment on BT-549 breast, 82.5 µM; in the experiment with DU-145 prostate, over 100 µM; in the experiment on MALME-3M melanoma, over 100 µM; with NCI-H226 lung, 44.7 µM; in the experiment on NCI-H23 lung, over 100 µM. Besides, the TGI with SK-MEL-2 melanoma was 62 µM; in the experiment with SR leukemia it was over 100 µM; with U251 CNS it was over 100 µM.
